Results on one compound are retold here after patent publication US20210353749A1, “GUANABENZ AS AN ADJUVANT FOR IMMUNOTHERAPY” (UNIVERSITÉ CATHOLIQUE DE LOUVAIN, priority 2018, published 2021).

SMILES strings stand for the structures.

In assay [1] the test system is IFNγ producing CD8+ T cells. The experiment in a line: Immunization with ovalbumin. It is filed as in vivo, C57BL/6J mice. The note with it: 100 μg (5 mg/kg) guanabenz with OVA/Alhydrogel, vs non-immunized control. How it is done: Immunization with Ovalbumin: C57BL/6J mice were immunized once by intraperitoneal (i.p.) injection of 200 ug of OVA protein adsorbed onto Alhydrogel adjuvant 2% (Sigma) These mice were administered 100 μg (5 mg/kg) of guanabenz 2 hours before the immunization and daily after the immunization. […] Intracellular IFNγ staining: one week after the immunization, the blood and spleen of each mouse were collected. Cells derived from the spleen and blood of each immunized mouse were cultured for 1 hour in 96 well U bottomed plates at 37° C. in the presence of 10 μM OVA peptide. Brefeldin A (10 μg/mL) was added to each well and the cells were incubated for an additional 4 hours. The immune response of each mouse was evaluated by measuring the amount of IFNγ producing CD8^+ T cells using antibodies against CD8 and IFNγ. Samples were then examined by FACS Fortessa flow cytometry.

Assay [2] deals with TiRP tumor. Nature of the assay: Immunodeficient Rag1-/- TiRP+/+ mice, TiRP tumor. It is filed as in vivo, mouse. The note with it: Rag1-/- TiRP+/+ mice lacking T cells, 5 mg/kg i.p. daily from about 500 mm^3 (day 0) to day 15, vs control; FIG. 4. On the procedure:
FIG. 4 is a graph showing the tumor size in the immunodeficient Rag1^-/- TiRP^+/+ mice that were injected with 4-OH-Tamoxifen to induce a TiRP tumor. When the tumor reached 500 mm^3 (day 0), the tumor bearing mice were randomized and received daily injections of guanabenz (5 mg/kg, i.p.) or vehicle (PBS, i.p.) until the day of sacrifice (day 15). A fresh solution of […]-Tamoxifen was prepared by dissolving […]-Tamoxifen ([…]) in 100% ethanol and mineral oil (ratio 1:9) followed by 30-min sonication, and injected subcutaneously (2 mg/200 μL per mouse) in the neck area of gender-matched 7 weeks old TiRP mice. Tumor appearance was monitored daily and tumors were measured three times/week. Tumor volume (in mm^3) was calculated by the following formula: Volume=width^2×length/2. Tumor-bearing TiRP mice were randomized based on the tumor size when average volume was 400 mm^3, 500 mm^3 or 1000 mm^3 as indicated. T cells were incubated with guanabenz (10, 20, or 40 μM) for 16 h to 24 h as indicated. Mice received a daily intra-peritoneal injection of guanabenz (5 mg/kg) or vehicle (PBS) from the day of randomization (and the day of ACT when applicable) until the day of sacrifice. As a control, tumors were induced in immunodeficient TiRP mice lacking T cells due to the deletion of the Rag1 gene (Rag 1^-/- TiRP^+/+ mice). […]

Assay [3] deals with TiRP tumor. Nature of the assay: TiRP melanoma model, drug alone. It is filed as in vivo, mouse. The note with it: 5 mg/kg i.p. daily from tumor size around 400 mm^3 (day 0) to day 12, vs vehicle; FIG. 3. The source says:
TiRP mice: TiRP mice have been created by crossing Ink4a/Arf^flox/flox mice with mice carrying a transgenic construct controlled by the tyrosinase promoter and driving the expression of H-Ras^12V and Trap1a which encodes a MAGE-type tumor antigen P1A; the promoter is separated from the coding region by a stop cassette made of a floxed self-deleting CreER (Huijbers et al., 2006, Cancer Res 66, 3278-3286). Those mice were backcrossed to a B10.D2 background and bred to homozygosity. TCRP1A mice heterozygous for the H-2Ld/P1A35-43-specific TCR transgene were kept on the B10.D2; Rag1^−/− background (Shanker et al., 2004, J Immunol 172, 5069-5077). All mice used in this study were produced under specific pathogen free (SPF) conditions at the animal facility of the Ludwig Institute for Cancer Research. All the rules concerning animal welfare have been respected according to the 2010/63/EU Directive. […]
A fresh solution of 40H-Tamoxifen was prepared by dissolving 40H-Tamoxifen (Imaginechem) in 100% ethanol and mineral oil (ratio 1:9) followed by 30-min sonication, and injected subcutaneously (2 mg/200 μL per mouse) in the neck area of gender-matched 7 weeks old TiRP mice. Tumor appearance was monitored daily and tumors were measured three times/week. Tumor volume (in mm^3) was calculated by the following formula: Volume=width^2×length/2. […]

With `NC(N)=N/N=C/c1c(Cl)cccc1Cl` [guanabenz, 2-[(E)-(2,6-dichlorophenyl)methylideneamino]guanidine], the “percentage of IFNγ producing CD8+ T cells among total CD8+ T, blood” value in assay [1] (blood cells with 10 μM OVA peptide, FIG. 8A) is listed as “significant increase”. In assay [1] (spleen cells with 10 μM OVA peptide, FIG. 8B), the “percentage of IFNγ producing CD8+ T cells among total CD8+ T, spleen” value is “significant increase”. Besides, the TiRP tumor growth entry in the assay on TiRP tumor [2] is recorded as “did not induce a decrease”; in the assay on TiRP tumor [3], “inhibitory effect”.
